Results published in PubChem BioAssay AID248 (DTP/NCI, 2004).
Where “and” joins values, the source holds several entries; their conditions need not be identical. Equal values may be shown once. Inconclusive results and toxic doses are left out. No stated cut-off is given here; in the data, active means T/C of 150% or more; inactive means T/C below 125%.

Test system: L1210 leukemia ip in BDF1 mice, survival T/C
Experiment: NCI In Vivo Anticancer Drug Screen. Data for tumor model L1210 Leukemia (intraperitoneal) in B6D2F1 (BDF1) mice
Conditions: endpoint: mean survival time, higher = longer survival
Outline: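 Each compound was tested against a transplantable tumor grown in mice. The endpoint was survival, with treated animals benchmarked against vehicle controls as a simple ratio.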

[1] = dose: 100.0 mg/kg/injection, schedule: Q01DX009 (ip), vehicle: saline
[2] = dose: 100.0 mg/kg/injection, schedule: Q04DX003 (ip), vehicle: saline
[3] = dose: 100.0 mg/kg/injection, schedule: Q01DX001 (ip), vehicle: saline
[4] = dose: 200.0 mg/kg/injection, schedule: Q01DX001 (ip), vehicle: saline
[5] = dose: 100.0 mg/kg/injection, schedule: Q01DX009 (ip), vehicle: Klucel (hydroxypropylcellulose) (HPC)
[6] = dose: 100.0 mg/kg/injection, schedule: Q04DX003 (ip), vehicle: Klucel (hydroxypropylcellulose) (HPC)
[7] = dose: 200.0 mg/kg/injection, schedule: Q01DX009 (ip), vehicle: Klucel (hydroxypropylcellulose) (HPC)
[8] = dose: 200.0 mg/kg/injection, schedule: Q04DX003 (ip), vehicle: Klucel (hydroxypropylcellulose) (HPC)
[9] = dose: 400.0 mg/kg/injection, schedule: Q01DX009 (ip), vehicle: Klucel (hydroxypropylcellulose) (HPC)
[10] = dose: 400.0 mg/kg/injection, schedule: Q04DX003 (ip), vehicle: Klucel (hydroxypropylcellulose) (HPC)
[11] = dose: 100.0 mg/kg/injection, schedule: Q01DX001 (ip), vehicle: other
[12] = dose: 200.0 mg/kg/injection, schedule: Q01DX001 (ip), vehicle: other
[13] = dose: 400.0 mg/kg/injection, schedule: Q01DX001 (ip), vehicle: other

Measured: T/C

CN(C)c1ccnc(SCc2ccc(Cl)cc2Cl)n1
inactive: dose: 25.0 mg/kg/injection, schedule: Q01DX Z (ip), vehicle: methylcellulose (MC) 92 % of control | dose: 50.0 mg/kg/injection, schedule: Q01DX Z (ip), vehicle: methylcellulose (MC) 94 % of control

CC(NC(=O)c1ccccc1)C(=O)NC(CSC(c1ccccc1)c1ccccc1)C(=O)O (centres undefined)
inactive: dose: 25.0 mg/kg/injection, schedule: Q01DX009 (ip), vehicle: saline 102 % of control | dose: 50.0 mg/kg/injection, schedule: Q01DX009 (ip), vehicle: saline 100 % of control | [1] 93 % of control and 90 % of control | [2] 94 % of control | dose: 200.0 mg/kg/injection, schedule: Q04DX003 (ip), vehicle: saline 100 % of control

c1ccc(Nc2nnc(Nc3ccccc3)s2)cc1
inactive: dose: 100.0 mg/kg/injection, schedule: Q01DX001 (ip), vehicle: Klucel (hydroxypropylcellulose) (HPC) 92 % of control | dose: 200.0 mg/kg/injection, schedule: Q01DX001 (ip), vehicle: Klucel (hydroxypropylcellulose) (HPC) 103 % of control | dose: 400.0 mg/kg/injection, schedule: Q01DX001 (ip), vehicle: Klucel (hydroxypropylcellulose) (HPC) 106 % of control

O=CC(O)C(O)C(O)C(O)CO (centres undefined)
inactive: [1] 98 % of control | dose: 200.0 mg/kg/injection, schedule: Q01DX009 (ip), vehicle: saline 96 % of control | dose: 400.0 mg/kg/injection, schedule: Q01DX009 (ip), vehicle: saline 107 % of control | dose: 800.0 mg/kg/injection, schedule: Q01DX009 (ip), vehicle: saline 98 % of control

O=C(O)C/C=C/C(=O)NCc1cccnc1
inactive: [3] 97 % of control | [4] 97 % of control | dose: 400.0 mg/kg/injection, schedule: Q01DX001 (ip), vehicle: saline 88 % of control

CCN(CC)CC(O)Cn1cnc2cncnc21 (centres undefined)
inactive: dose: 25.0 mg/kg/injection, schedule: Q04DX003 (ip), vehicle: saline 98 % of control | dose: 50.0 mg/kg/injection, schedule: Q04DX003 (ip), vehicle: saline 107 % of control | [2] 98 % of control

O=C(NCCCCCCCCCCNC(=O)Nc1ccc(C2=NCCCN2)cc1)Nc1ccc(C2=NCCCN2)cc1
inactive: dose: 3.12 mg/kg/injection, schedule: Q01DX Z (ip), vehicle: carboxymethylcellulose (CMC) 108 % of control | dose: 6.25 mg/kg/injection, schedule: Q01DX Z (ip), vehicle: carboxymethylcellulose (CMC) 111 % of control | dose: 9.5 mg/kg/injection, schedule: Q01DX001 (ip), vehicle: other 101 % of control | dose: 19.0 mg/kg/injection, schedule: Q01DX001 (ip), vehicle: other 110 % of control | dose: 25.0 mg/kg/injection, schedule: Q01DX Z (ip), vehicle: carboxymethylcellulose (CMC) 122 % of control | dose: 38.0 mg/kg/injection, schedule: Q01DX001 (ip), vehicle: other 101 % of control

CCOP(=S)(OCC)SCc1c(C)c(C)c(CSP(=S)(OCC)OCC)c(C)c1C
inactive: [5] 95 % of control | [6] 103 % of control | [7] 103 % of control | [8] 101 % of control | [9] 93 % of control | [10] 105 % of control

CCc1noc(CC)c1CC1=C2CCC3(C)CCC(C)(C)CC3C2(C)CCC1=O (centres undefined)
inactive: [11] 96 % of control | dose: 100.0 mg/kg/injection, schedule: Q01DX009 (ip), vehicle: saline with Tween-80 93 % of control | [12] 94 % of control | dose: 200.0 mg/kg/injection, schedule: Q01DX009 (ip), vehicle: saline with Tween-80 91 % of control | [13] 97 % of control | dose: 400.0 mg/kg/injection, schedule: Q01DX009 (ip), vehicle: saline with Tween-80 90 % of control

OCC(CO)=C1c2ccccc2-c2ccccc21
inactive: dose: 100.0 mg/kg/injection, schedule: Q## X003 (ip), vehicle: acetone 102 % of control | dose: 200.0 mg/kg/injection, schedule: Q## X003 (ip), vehicle: acetone 101 % of control | dose: 400.0 mg/kg/injection, schedule: Q## X003 (ip), vehicle: acetone 104 % of control

CCC/C=C(\C)CCCCCCCCC (tested in a mixture with another compound)
inactive: dose: 100.0 mg/kg/injection, schedule: Q04DX003 (ip), vehicle: saline with Tween-80 98 % of control | dose: 200.0 mg/kg/injection, schedule: Q04DX003 (ip), vehicle: saline with Tween-80 101 % of control | dose: 400.0 mg/kg/injection, schedule: Q04DX003 (ip), vehicle: saline with Tween-80 106 % of control

NC(C(=O)O)c1ccc(F)cc1 (centres undefined)
inactive: dose: 50.0 mg/kg/injection, schedule: Q01DX001 (ip), vehicle: saline 104 % of control | [3] 104 % of control | [4] 101 % of control

COc1ccc(C(=O)Nc2ccc([N+](=O)[O-])cc2O)cc1
inactive: [6] 103 % of control | [8] 104 % of control | [10] 97 % of control

Cc1ccc(C(=O)CCCC(=O)c2ccc(C)cc2)cc1
inactive: dose: 50.0 mg/kg/injection, schedule: Q01DX001 (ip), vehicle: other 103 % of control | [11] 91 % of control | [12] 97 % of control | [13] 95 % of control

CN(C(=O)Oc1ccccc1)c1ccc(S(=O)(=O)F)cc1
inactive: dose: 100.0 mg/kg/injection, schedule: Q01DX001 (ip), vehicle: saline with Tween-80 104 % of control | dose: 200.0 mg/kg/injection, schedule: Q01DX001 (ip), vehicle: saline with Tween-80 96 % of control | dose: 400.0 mg/kg/injection, schedule: Q01DX001 (ip), vehicle: saline with Tween-80 98 % of control

CC(O)C(c1ccccc1)S(C)(=O)=O (centres undefined)
inactive: [5] 117 % of control | [6] 104 % of control | [7] 96 % of control | [8] 111 % of control | [9] 95 % of control | [10] 94 % of control

O=C1OCCC1C(=O)C(O)(C(F)(F)F)C(F)(F)F (centres undefined)
inactive: dose: 100.0 mg/kg/injection, schedule: Q01DX009 (ip), vehicle: other 96 % of control | dose: 200.0 mg/kg/injection, schedule: Q01DX009 (ip), vehicle: other 100 % of control | dose: 400.0 mg/kg/injection, schedule: Q01DX009 (ip), vehicle: other 94 % of control

CC(=N/N(Cc1ccccc1)c1ccccc1)/C(C)=N/N(Cc1ccccc1)c1ccccc1
inactive: [11] 89 % of control | [12] 89 % of control | [13] 89 % of control

CCCCOc1ccc(Nc2c3ccccc3nc3ccccc23)cc1
inactive: [6] 123 % of control

COc1cc(OC)c(-c2nc3ccc(C)cc3c(=O)o2)cc1OC
inactive: dose: 100.0 mg/kg/injection, schedule: Q04DX002 (ip), vehicle: saline with Tween-80 103 % of control | dose: 200.0 mg/kg/injection, schedule: Q04DX002 (ip), vehicle: saline with Tween-80 100 % of control | dose: 400.0 mg/kg/injection, schedule: Q04DX002 (ip), vehicle: saline with Tween-80 103 % of control

CC1(C)CCC(=O)C=C1c1c[nH]c2ccccc12
inactive: [11] 88 % of control | [12] 88 % of control | [13] 97 % of control

Cc1c2ccn(O)cc2cc2c1nc1ccccc12
inactive: dose: 18.75 mg/kg/injection, schedule: Q01DX009 (ip), vehicle: other 116 % of control | dose: 37.5 mg/kg/injection, schedule: Q01DX009 (ip), vehicle: other 114 % of control | dose: 75.0 mg/kg/injection, schedule: Q01DX009 (ip), vehicle: other 112 % of control | dose: 150.0 mg/kg/injection, schedule: Q01DX009 (ip), vehicle: other 110 % of control

CC1(C)N=C(N)N=C(N)N1c1cccc(OCCCOc2cccc(NC(=O)CBr)c2)c1
inactive: dose: 5.0 mg/kg/injection, schedule: Q01DX001 (ip), vehicle: saline 95 % of control | dose: 10.0 mg/kg/injection, schedule: Q01DX001 (ip), vehicle: saline 94 % of control | dose: 20.0 mg/kg/injection, schedule: Q01DX001 (ip), vehicle: saline 101 % of control | dose: 40.0 mg/kg/injection, schedule: Q01DX001 (ip), vehicle: saline 103 % of control
